The subject of one assay is STAT3. The experiment in a line: Western blot of STAT3 phosphorylation in C2C12 cells. It counts as cell-based, mouse. Conditions: C2C12 myoblast cells, 5 to 20 min after stimulation. As for the experimental part:
Cell lysis, fractionation, and SDS-PAGE were conducted in accordance with procedures described previously (Yang Y C et al., BMC Cancer 2007; 7:216). Antibodies used in this study were for Phospho-Stat3 and STAT3 (1:1000-fold dilution). Proteins of interest were detected using the appropriate IgG-HRP secondary antibody (Santa Cruz Biotechnology) and ECL reagent (Amersham Biosciences).
On the technique in general: In western blotting, separated proteins are transferred to a membrane and probed.

A further assay concerns IL-1β mRNA. Description: Hyperosmotic stress-induced IL-1β gene expression in rabbit corneal epithelial cells (qPCR). It counts as cell-based. As to conditions: 20 μM peptide 6 h, then hyperosmotic medium (463 mOsM) 3 h, solvent 4.5-fold. As for the experimental part:
Total RNA was extracted from cells using TRIzol (Invitrogen). Synthesis of cDNA was performed with 1 μg of total RNA at 50° C. for 50 min using oligo(dT) primers and reverse transcriptase (Superscript III; Invitrogen). Briefly, quantification of cDNA was performed in the LightCycler (Roche, Mannheim, Germany) using the DNA Master SYBR Green I kit (Roche) with the following cycling conditions: initial denaturation at 95° C. for 10 min, followed by 40 cycles at 95° C. for 10 s, 60° C. for 10 s, and 72° C. for 10 s and a 5-min terminal incubation at 72° C. The data were calculated with AACt. The expression was then normalized against the expression of glyceraldehyde-3-phosphate dehydrogenase (GAPDH). The PCR primers were mouse Survivin sense, 5′-[…]-3′ (SEQ ID NO: 27), anti-sense, 5′-[…]-3′ (SEQ ID NO: 28) (accession number: NM_001012273.1; PCR product: 136 bp); mouse GAPDH sense, 5′-[…]-3′ (SEQ ID NO: 29), anti-sense, 5′-[…]-3′ (SEQ ID NO: 30) (NM_001289726.1; 149 bp). For analysis rabbit inflammatory gene expression, The PCR primers were rabbit TNF-αsense, 5′-[…]-3′ (SEQ ID NO: 31), anti-sense, 5′-[…]-3′ (SEQ ID NO: 32) (accession number: NM 001082263.1); rabbit IL-1βsense, 5′-[…]-3′(SEQ ID NO: 33), anti-sense, 5′-[…]-3′ (SEQ ID NO: 34) (NM 001082201.1); rabbit GAPDH sense, 5′-[…]-3′ (SEQ ID NO: 35), anti-sense, 5′-[…]-3′ (SEQ ID NO: 36) (accession number:NM 001082253.1). The cycle threshold (Ct) values of the PCR product and a GAPDH (Glyceraldehyde 3-phosphate dehydrogenase) control mRNA were used to calculate relative quantities of mRNA.
Limbal stem epithelial cells (LSEC) were isolated from 6-month-old New Zealand white rabbits and continuously cultivated for 14 days byDMEM/F-12basalmedium based cell-suspension culture to achieve corneal-liked epithelial cell differentiation as previously described (Ho et al., Stem Cells. 2013; 31:1775). […] After 3 h, quantitative real-time PCR was used to estimate HOP-induced Tumor necrosis factor (TNF)-α and nterleukin-1 beta (IL-1β) expressions. […]

In a further assay the test system is ARPE-19 cells. The experiment in a line: 4-HNE induced apoptosis of ARPE-19 cells (TUNEL staining). The assay is classed as cell-based, human. Conditions: 20 μM peptide pretreatment, 25 μM 4-HNE 24 h. As for the experimental part:
FIG. 6. The protective effect of the 6-mer dS on ARPE-19 cells against 4-HNE induced apoptosis. Cells were deprived of serum for 24 h and then pretreated with 20 μM 6-mer dS or solvent prior to exposed with 25 μM 4-HNE for additional 24 h. Apoptosis was determined by TUNEL staining (green dots) and counter-stained with Hoechst 33258 (blue dots). (A) Representative graphs from three independent experiments are shown. (B) The percentage of cell death was quantified by dividing the number of TUNEL-positive cells to a population of 2000 counted cells per condition. TUNEL, terminal deoxynucleotidyl transferase-mediated dUTP nick end-labeling. ^aP<0.00003 versus solvent-treated cells. ^bP<0.0006 versus solvent/4-HNE-treated cells.
Reference is made to FIG. 6, which depicts the protective effect of 6-mer dS or 6-mer dE on 4-hydroxy-2-nonenal (4-HNE) induced apoptosis of ARPE-19 cells. 4-hydroxy-2-nonenal (4-HNE) is a product of lipid oxidation, and is also considered as one of the most formidable reactive aldehydes capable of forming adduct with various cellular targets, particularly proteins involve in redox signaling.

For “NH2-(D-Ser)-Leu-Gly-Ala-Glu-Gln-COOH (SLGAEQ; HELM PEPTIDE1{[dS].L.G.A.E.Q}$$$$V2.0; SMILES CC(C)C[C@H](NC(=O)[C@H](N)CO)C(=O)NCC(=O)N[C@@H](C)C(=O)N[C@@H](CCC(=O)O)C(=O)N[C@@H](CCC(N)=O)C(=O)O) [6-mer dS]”, the “STAT3 phosphorylation (immunoblot)” value in the assay with STAT3 is “led to STAT3 phosphorylation”. The “mRNA expression of IL-1β, in words” value in the assay with IL-1β mRNA is “apparently repressed the mRNA expression of TNF-α and IL-1β”. For the same substance, the “4-HNE induced apoptosis (TUNEL), in words” value in the assay on ARPE-19 cells is listed as “could suppress 4-HNE induced apoptosis”.

The values are drawn from patent US12221494B2, “Short synthetic peptides and their uses for treating retinal degenerative diseases and/or tissue injuries” (MacKay Memorial Hospital, priority 2019, dated 2025).
